Experimental data: PMC6316070 (Marine Drugs, 2018)

Experiments:
Conditions in all cases: human
[1] = in vitro
Experimental: (§1) The in vitro cytotoxic effects of the novel compounds 1, 8, and 9 were evaluated on five human cancer cell lines using the MTT (3-(4,5-dimethylthiazol-2-yl)-2,5-diphenyltetrazolium bromide) method [32, 33, 34]. […] All cells were cultured in RPMI-1640 medium containing 10% fetal bovine serum (FBS), and kept in a humidified atmosphere containing 5% CO2 at 37 °C. […] In brief, the cell suspensions (200 μL, 5 × 10^4 cells/mL) were seeded into 96-well culture plates and kept at 37 °C for 12 h, then the sample solvents (20 μL) were added into each well and further cultured at 37 °C for 24 h. Subsequently, MTT (100 μg) was added into each well and incubated at 37 °C for 4 h. After removal of the 100 μL culture medium, the cells were lysed with 20% SDS-50% DMF (100 μL). The remaining lysates were subjected to measurements of the optical density at 595 nm with a 96-well microtiter plate reader. Reed and Muench’s method was used to calculate IC50 values [32].

[2] = in vitro; remark: listed apart in the source
Experimental: as §1

[3] = in vitro; remark: listed apart in the source
Experimental: as §1

[4] = in vitro; remark: listed apart in the source
Experimental: as §1

[5] = in vitro; remark: listed apart in the source
Experimental: as §1

Measured: IC50

CC1C(C(C)(O)CC=CC(C)(C)O)CCC1(C)O (stereo not shown) [Compound 9, Cyclonerodiol D]
> 40 µM: all assays above

CC(=O)OCC(C)=CCCC(C)(O)C1CCC(C)(O)C1C (stereo not shown) [Compound 8, Cyclonerodiol C]
> 40 µM: all assays above
